Laboratory results: patent US11459387B2, “Anti-CD147 antibody” (DAIICHI SANKYO COMPANY, LIMITED, priority 2017, dated 2022)

How the values were obtained:
[1] = tested on: human pancreatic line MIA PaCa-2; test: MIA PaCa-2 pancreatic xenograft model in NOD-scid mice, humanized antibodies; assay type: in vivo; conditions: gemcitabine 400 mg/kg ip 7 and 14 days after the inoculation
Procedure: 5×10^6 cells of human pancreatic line MIA PaCa-2 were suspended in PBS containing 50% GFR-Matrigel (Corning Inc., Cat. 354230), and the suspension was inoculated subcutaneously into the axilla of 4 week-old female NOD-scid mice (NOD. CB17-Prkdc/J, purchased from CHARLES RIVER LABORATORIES JAPAN, INC). […] As a control drug, gemcitabine (purchased from Eli Lilly Japan K.K.) that is a standard therapeutic agent for pancreatic cancer was administered intraperitoneally to cancer-bearing mice at 400 mg/kg 7 and 14 days after the inoculation (n=5). The major axis and the minor axis of the inoculated tumor were measured twice a week using an electronic digital caliper (available from MITUTOYO CORPORATION) to calculate the tumor volume by the following formula.

[2] = tested on: human pancreatic line BxPC-3; test: SMAD4-negative BxPC-3 pancreatic cancer-bearing model in BALB/c-nu mice; assay type: in vivo; conditions: gemcitabine 200 mg/kg via the tail vein 8, 15, 22 days after the inoculation
From the text: The transcription factor, SMAD4, is known as one of the molecules important for activation of SMAD signaling (Zang, et al., Current Biology, 270-276, 1997). It is known that SMAD signaling is partially impaired due to genetic defects of SMAD4 in some pancreatic cancers (Hahn, et al., Science, 350-353, 1996). […] 2.5×10^6 cells of human pancreatic line BxPC-3 (ATCC, Cat. CRL-1687) were suspended in PBS containing […] (Corning Inc., Cat. 354234), and the suspension was inoculated subcutaneously into the axilla of 6 week-old female BALB/c-nu mouse (CAnN. Cg-Foxn1nu/CrlCrlj, purchased from CHARLES RIVER LABORATORIES JAPAN, INC). […] As a control drug, gemcitabine (Eli Lilly Japan K.K., Gemzar®) that is a therapeutic agent for pancreatic cancer was administered to mice bearing tumor via the tail vein at 200 mg/kg 8, 15, 22 days after the inoculation (n=5). The major axis and the minor axis of the inoculated tumor were measured twice a week using an electronic digital caliper (available from MITUTOYO CORPORATION) to calculate the tumor volume by the following formula. Tumor volume (mm^3)=½×minor axis (mm)×minor axis (mm)×major axis (mm)

[3] = tested on: gemcitabine-resistant MIA PaCa-2 tumors; test: Gemcitabine-resistant MIA PaCa-2 pancreatic cancer tumor model in NOD-scid mice; assay type: in vivo, human
From the text: The antitumor efficacy of the CD147 antibody in a gemcitabine-resistant pancreatic cancer tumor model was investigated. 5×10^6 cells of human pancreatic line MIA PaCa-2 were suspended in PBS containing 50% GFR-Matrigel (Corning Inc., Cat. 354230), and the suspension was inoculated subcutaneously into the axilla of 5 week-old female NOD-scid mice (NOD. CB17-Prkdc/J, CHARLES RIVER LABORATORIES JAPAN, INC). Gemcitabine (Eli Lilly Japan K.K.), which is a standard therapeutic agent for pancreatic cancer, was intraperitoneally administered at 400 mg/kg 6 days after the inoculation, and grouping of mice in which gemcitabine-resistant tumors were confirmed to grow was performed based on tumor size one week later. Gemcitabine was intraperitoneally administered to the control group at 400 mg/kg (n=5) 13 days (grouping date) and 20 days after the inoculation. […] The major axis and the minor axis of the inoculated tumor were measured twice a week using an electronic digital caliper (available from MITUTOYO CORPORATION) to calculate the tumor volume by the following formula. […]

[4] = tested on: human pancreatic line MIA PaCa-2; test: MIA PaCa-2 model in Nude mice, humanized antibodies with different binding activities; assay type: in vivo; conditions: gemcitabine 400 mg/kg via the tail vein 3 and 10 days after the inoculation
Procedure: 5×10^6 cells of human pancreatic line MIA PaCa-2 were suspended in PBS containing 50% GFR-Matrigel (Corning Inc., Cat. 354230), and the suspension was inoculated subcutaneously into the axilla of 4-week old female Nude mice (BALB/c Slc-nu/nu, purchased from Japan SLC, Inc). […] As a control drug, gemcitabine (purchased from Eli Lilly Japan K.K.), which is a standard therapeutic agent for pancreatic cancer, was administered to cancer-bearing mice via the tail vein at 400 mg/kg 3 and 10 days after the inoculation (n=6). The major axis and the minor axis of the inoculated tumor were measured twice a week using an electronic digital caliper (available from MITUTOYO CORPORATION) to calculate the tumor volume by the following formula. Tumor volume (mm^3)=½×minor axis (mm)×minor axis (mm)×major axis (mm)

**Q.** How did the “tumor disappearance (in words)” value [1] turn out when Nc1ccn([C@@H]2O[C@H](CO)[C@@H](O)C2(F)F)c(=O)n1 [gemcitabine, reference compound] was run?
**A.** no tumor disappearance was recognized

**Q.** What about the “tumor growth inhibition rate” value ([1]; NOD-scid mice) of the same compound?
**A.** 71%

**Q.** What about the “sensitivity of BxPC-3 tumor (in words)” value [2] of the same compound?
**A.** resistant

**Q.** And the average tumor size ([3]; gemcitabine 400 mg/kg ip 6, 13 and 20 days after the inoculation, 28 days after the inoculation)?
**A.** 1269 mm^3

**Q.** And the “regressing tumors (in words)” value ([3]; gemcitabine 400 mg/kg ip alone)?
**A.** no regressing tumors were observed

**Q.** What about the “tumor growth inhibition rate” value [4] of the same compound?
**A.** 66%
